Measured values taken from patent publication US10603323B2, “Combination of histamine-3 receptor inverse agonists with acetylcholinesterase inhibitors” (priority 2016, dated 2020).
Where a name gives a salt, the structure may show the parent alone. Read-outs that look alike come from different tables or passages of the source.

Key:
[1] = system: stimulation evoked theta levels in dorsal hippocampus; assay: Theta modulation in dorsal hippocampus of anesthetized rats; assay type: in vivo, male Wistar rats
From the text: Male Wistar rats (240-320 g) were anesthetized by intraperitoneal administration of urethane (1.2 to 1.5 g/kg) for implantation of a catheter in the left femoral vein. The animal was placed in a stereotaxic frame for implanting an electrode (stainless steel wire, Plastics One) into the dorsal hippocampus (AP, −3.8 mm; ML, +2.2 mm; DV, −2.5 mm; Paxinos and Watson, 2004). Bipolar stimulating electrode (untwisted stainless steel wires, separated by 0.75-1.0 mm at their tips, Plastics One) was implanted in the Nucleus Pontis Oralis (NPO; AP, −7.8 mm; ML, 1.8 mm; DV, −6.0 mm; Paxinos and Watson, 2004). Additionally one electrode was implanted into the cerebellum which served as a reference. Hippocampal θ rhythm was evoked via a 6-s electrical stimulation train (20-160 μA, 0.3-ms pulse duration, 250 Hz) delivered to the NPO at a rate of 0.01 trains/s with a Grass S88 stimulator and PSIU6 stimulus isolation unit (Grass Medical Instruments, Quincy, Mass.). EEG was recorded at a rate of 1000 Hz using Ponemah (Version 5.2) software and stored for off-line analysis using NeuroScore (Version 3.0). Baseline amplitude level was achieved by using the current required to elicit θ rhythm to 50% of the maximal amplitude under control conditions.
Power in the θ rhythm frequency in the stimulation period during the 30-min baseline period was calculated and the % changes in these measures post treatment were calculated. […] Statistical significance was considered at a p value less than 0.05.

[2] = system: extracellular levels of acetylcholine in medial prefrontal cortex; assay: Acetylcholine modulation in medial prefrontal cortex (microdialysis); assay type: in vivo, male Wistar rats; details: for mean AUC of percent change in acetylcholine levels, combination compared to donepezil alone: test compound in combination with donepezil (1 mg/kg, s.c.)
From the text: Male Wistar rats (240-300 g body weight) were stereotaxically implanted with a microdialysis guide cannula in medial prefrontal cortex (mPFC; AP: +3.2 mm, ML: −0.5 mm, DV: −3.0 mm) under isoflurane anesthesia. Co-ordinates were taken according to atlas for the rat brain (Paxinos and Watson 2004) with reference points taken from bregma and vertical from the skull. The rats were allowed to recover individually for four days in a round bottom Plexiglas bowl with free access to feed and water.
After surgical recovery of 4 days, male Wistar rats were connected to dual quartz lined two-channel liquid swivel (Instech, UK) on a counter balance lever arm, which allowed unrestricted movements of the animal. Sixteen hours before start of the study, a pre-equilibrated microdialysis probe (2 mm dialysis membrane) was inserted into mPFC through the guide cannula. On the day of study, probe was perfused with artificial cerebrospinal fluid (aCSF; NaCl 147 mM, KCl2.7 mM, MgCl2 1 mM, CaCl2. 2H2O 1.2 mM, pH 7.4) at a flow rate of 1.5 μL/min and a stabilization period of 2 h was maintained. Five basal samples were collected at 20 min intervals prior to the treatment of test Compounds (3 or 10 mg/kg, p.o.) or vehicle. […] Dialysate samples were collected for an additional period of 4 h post treatment of test compounds. Dialysates were stored below −50° C. prior to analysis.
Acetylcholine concentrations in dialysates were quantified using LC-MS/MS based method.
All microdialysis data for acetylcholine was plotted as percent change from mean dialysate basal concentrations with 100% defined as the average of five pre-dose values. […] Statistical significance was considered at a p value less than 0.05. Incorrect probe placement was considered as criteria to reject the data from animal.

[3] = molecular target: T1, Human histamine-3 receptor (Homo sapiens, UniProt Q9Y5N1); assay: Determination of Ki value at human histamine-3 receptor (radioligand binding, [3H] R-α-methylhistamine)
T1 construct: expressed in transfected cells; host or cells: CHO cells
Description: Test compounds were evaluated according to the following procedures to determine the Ki value at human and rat histamine-3 receptor.
• Receptor source: Rat brain frontal cortex or recombinant human cDNA expressed in CHO cells • Radioligand: [3H] R-α-methylhistamine • Final ligand concentration: [3.0 nM] • Non-specific determinant: R-α-methylhistamine (100 μM) • Reference compound: R-α-methylhistamine • Positive control: R-α-methylhistamine Incubation Conditions:
Increasing concentrations of test compounds or standard were incubated with membrane receptors and radioligand in 5 mM MgC12 and 50 mM TRIS-HCl (pH 7.4) for 60 minutes at room temperature. The reaction was terminated by rapid vacuum filtration onto the glass fiber filters. Radioactivity trapped onto the filters was determined and compared to the control values in order to ascertain any interactions of the test compound(s) with either cloned human or rat receptor binding site.

[4] = Compound 1 (1 mg/kg, i.v.) in combination with donepezil (0.3 mg/kg, i.v.)
[5] = test compound (3 or 10 mg/kg, p.o.) in combination with donepezil (1 mg/kg, s.c.)

T1 sequence (Q9Y5N1 whole entry): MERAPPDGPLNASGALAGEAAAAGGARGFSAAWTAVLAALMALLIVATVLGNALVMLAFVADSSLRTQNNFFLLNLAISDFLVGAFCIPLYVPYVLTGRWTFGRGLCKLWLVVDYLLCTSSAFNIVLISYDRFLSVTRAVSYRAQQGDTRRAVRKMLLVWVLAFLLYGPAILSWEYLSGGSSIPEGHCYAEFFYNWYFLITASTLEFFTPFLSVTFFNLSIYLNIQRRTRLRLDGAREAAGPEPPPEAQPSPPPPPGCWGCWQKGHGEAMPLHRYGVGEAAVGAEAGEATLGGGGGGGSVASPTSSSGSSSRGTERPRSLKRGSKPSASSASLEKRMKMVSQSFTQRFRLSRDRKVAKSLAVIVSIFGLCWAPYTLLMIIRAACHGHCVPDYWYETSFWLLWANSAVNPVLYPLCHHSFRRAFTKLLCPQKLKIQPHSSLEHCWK

SMILES: O=C(CN1CCOCC1)Nc1ccc(OC2CCN(C3CCC3)CC2)cc1 [Compound 1, N-[4-(1-Cyclobutylpiperidin-4-yloxy)phenyl]-2-(morpholin-4-yl)acetamide dihydrochloride]
- mean AUC of theta power, combination compared to donepezil [1, 4]: significantly higher
- peak theta power levels, % of pre-dose levels [1, 4]: 163±15 % of pre-dose levels
- peak acetylcholine levels, % of pre-dose levels [2, 5]: 1676±150 % of pre-dose levels
- peak acetylcholine levels, % of pre-dose levels ([2]; test compound (3 or 10 mg/kg, p.o.) in combination with rivastigmine (0.5 mg/kg, s.c.)): 1276±213 % of pre-dose levels
- mean AUC of percent change in acetylcholine levels, combination compared to donepezil alone [2]: significantly higher
- mean AUC of percent change in acetylcholine levels, combination compared to rivastigmine alone ([2]; test compound in combination with rivastigmine (0.5 mg/kg, s.c.)): higher

SMILES: O=C(CN1CCOCC1)Nc1ccc(OC2CCN(C3CC3)CC2)cc1 [Compound 2, N-[4-(1-Cyclopropylpiperidin-4-yloxy)phenyl]-2-(morpholin-4-yl)acetamide tartrate]
- Ki [3]: 0.0199 µM
- peak acetylcholine levels, % of pre-dose levels [2, 5]: 3057±468 % of pre-dose levels
- mean AUC of percent change in acetylcholine levels, combination compared to donepezil alone [2]: significantly higher

SMILES: CC(C)N1CCC(Oc2ccc(NC(=O)CN3CCOCC3)cc2)CC1 [Compound 3, N-[4-(1-Isopropylpiperidin-4-yloxy)phenyl]-2-(morpholin-4-yl)acetamide]
- Ki ([3]; recombinant human cDNA expressed in CHO cells, [3H] R-α-methylhistamine 3.0 nM, read-out: Human histamie-3 receptor Ki): 0.0083 µM
- peak acetylcholine levels, % of pre-dose levels [2, 5]: 1874±184 % of pre-dose levels
- mean AUC of percent change in acetylcholine levels, combination compared to donepezil alone [2]: significantly higher

SMILES: COc1cc2c(cc1OC)C(=O)C(CC1CCN(Cc3ccccc3)CC1)C2 (centres unmarked) [donepezil, reference compound]
- effect on hippocampal theta power ([1]; donepezil alone, 0.3 mg/kg, i.v.): increase in hippocampal theta power

SMILES: CCN(C)C(=O)Oc1cccc([C@H](C)N(C)C)c1 [rivastigmine, reference compound]
- maximum cortical acetylcholine levels, % of basal levels ([2]; rivastigmine alone, 0.5 mg/kg, s.c., mPFC dialysate): 612±104 % of basal levels
